Measured values as given in patent publication US20180318343A1, “THERAPEUTIC AGENT FOR SKIN WOUND OR ROUGH SKIN” (JFE MINERAL COMPANY, LTD., priority 2015, published 2018).

Tests used:
fibroblast = details: cited from earlier work
skin = details: in vivo; cited from earlier work
[1] = Dissolution test by stirring method in saline; details: per BET surface area, mass ratio 1:50, stirring 500 rpm, 37° C., 3 hours
Protocol: The amount of dissolved Zn^2+ ions is measured in the present description, as follows: The surface areas of samples, which are produced with varying pH values at production by the same process as that for Preparation Example 2 of Examples to be described later, are measured beforehand by the BET method (BET specific surface area analyzer: High Precision, Multi-Analyte Gas Absorption Analyzer, manufactured by Quantachrome Instruments Japan G.K.). For each sample, the Zn^2+ ion concentration after stirring in saline is measured with an ICP emission spectrometer (ICPE-9000, manufactured by Shimadzu Corporation) to thereby obtain the amount of dissolved Zn^2+ ions, and then the amount of dissolved Zn^2+ ions is divided by the previously measured surface area. The mass ratio between each sample and the saline is set to 1:50, and the amount of Zn^2+ ions dissolved in the saline is measured after 3-hour stirring at 500 rpm at 37° C. by means of a rotor. […]
A dissolution test by a stirring method was conducted on 0.6 g each of dry powders obtained in Preparation Example 2 using 30 g of saline, and the amount of dissolved Zn^2+ ions and the pH were measured. […] Then the pH and the Zn^2+ ion concentration after the dissolution test were measured. […]

| SMILES | zinc ion concentration that does not exhibit toxicity to a fibroblast (fibroblast) | zinc ion level leading to increased inflammatory cell infiltration in skin and remarkably delayed reepithelization (skin) | Amount of dissolved Zn^2+ ions after dissolution test [1] |
| --- | --- | --- | --- |
| [Zn+2] [zinc ions] | not more than 500 μmol/L | not less than 15 mmol/L |  |
| [OH-].[OH-].[Zn+2] [zinc hydroxide] |  |  | less than 0.1 μg/m^2 |
| [O]=[Zn] [zinc oxide] |  |  | sufficient |
